Like-named read-outs stand apart in the source and are kept apart here.
Tests used:
Type in all cases: in vivo
[1] = system: cotton melon aphid (Aphis gossypii Glover); test: Test D: cotton melon aphid control on okra plants, insect mortality after 6 days; settings: Aphis gossypii, read-out: % Mortality (obs)
Method in brief: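 Okra plants (6–7 days old) pre-infested with 30–40 aphids by cut-leaf transfer were sprayed, three replicates, then held 6 days at 19-21° C and 50-70% RH before mortality scoring. Mixture enhancement was judged against Colby-expected % mortality.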

[2] = system: corn planthopper (Peregrinus maidis (Ashmead)); test: Test C: corn planthopper control on corn plants, insect mortality after 6 days; settings: Peregrinus maidis, read-out: % Mortality (obs)
Method in brief: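 3-4-day-old potted corn plants sprayed at 250, 50 and/or 10 ppm (contact/systemic), dried 1 h, then infested with ~15-20 nymphs 18-21 days old. Mortality scored after 6 days at 19-21 °C, 50-70% RH; mixture effects judged against Colby-expected mortality.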

[3] = system: diamondback moth (Plutella xylostella L.); test: Test E: diamondback moth control through ingestion only, sprayed cabbage leaf tissue (Dipel), mortality after 4 days; settings: Table 6c, read-out: % Mortality (obs)
Description: The pest control protection afforded by the mixtures or compositions is not limited, however, to these species. The analysis of enhanced activity between the mixtures or compositions was determined using Colby's equation. The average % mortality data for the test compounds alone were inserted into the Colby's equation. If the observed (obs) average % mortality was higher than “p”, the expected (exp) % mortality, the mixture or composition had enhanced effects. If the observed average % mortality was equal to or lower than the expected mortality, the mixture or composition either had no enhanced effect. For bioassays where insect feeding damage was evaluated, enhanced activity is identified when the observed plant damage is less than the expected plant damage rating; ratings ranged between 0 (no damage) and 10 (dead plant) and each value was converted to a % plant protection. 100−(Obs Plant Damage*10)
For evaluating control of diamondback moth (Plutella xylostella L.) through ingestion only, the test substance Dipel® (active ingredient Bacillus thuringiensis kurstaki) was formulated by diluting in water and then adding an MSO based adjuvant at 0.1% v/v. Cabbage plants were sprayed with Dipel® to runoff and allowed to dry for three hours. Once dry, plants leaf tissue was excised and one piece was placed into one well in an eight well tray. Test units were maintained in a growth chamber at 24-25° C. and 70% relative humidity.

CC1(NC(=O)c2cccc3nn(-c4cccnc4)cc23)CC1 [Cpd 4, N-(1-methylcyclopropyl)-2-(3-pyridinyl)-2H-indazole-4-carboxamide]
mortality at 0.2 ppm ([1]; 5 h, Table 5h): 44.6% | mortality at 0.5 ppm ([1]; 5 h, Table 5h): 68.7% | mortality at 0.2 ppm ([1]; 120 h, Table 5d): 48.3% | mortality at 0.5 ppm ([1]; 120 h, Table 5d): 58.9% | mortality at 0.2 ppm ([1]; Table 5a): 48.3% | mortality at 0.5 ppm ([1]; Table 5a): 58.9% | mortality at 0.2 ppm ([1]; Table 5b): 48.3% | mortality at 0.5 ppm ([1]; Table 5b): 58.9% | mortality at 0.2 ppm ([1]; Table 5c): 6.7% | mortality at 0.5 ppm ([1]; Table 5c): 6.7% | mortality at 0.2 ppm ([1]; Table 5e): 30.8% | mortality at 0.5 ppm ([1]; Table 5e): 69.7% | mortality at 0.2 ppm ([1]; Table 5f): 40.7% | mortality at 0.5 ppm ([1]; Table 5f): 73.4% | mortality at 0.2 ppm ([1]; Table 5g): 21% | mortality at 0.5 ppm ([1]; Table 5g): 45.1% | mortality at 0.2 ppm ([1]; Table 5i): 33.5% | mortality at 0.5 ppm ([1]; Table 5i): 80.3% | mortality at 0.2 ppm ([1]; Table 5j): 33.5% | mortality at 0.5 ppm ([1]; Table 5j): 80.3% | mortality at 0.2 ppm ([1]; Table 5k): 40.2% | mortality at 0.5 ppm ([1]; Table 5k): 69.3% | mortality at 0.2 ppm ([1]; Table 5l): 40.2% | mortality at 0.5 ppm ([1]; Table 5l): 69.3% | mortality at 0.2 ppm ([1]; Table 5m): 42.5% | mortality at 0.5 ppm ([1]; Table 5m): 65% | mortality at 0.2 ppm ([1]; Table 5n): 57.1% | mortality at 0.5 ppm ([1]; Table 5n): 73.9% | mortality at 50 ppm ([2]; 96 h, Table 4d): 0% | mortality at 250 ppm ([2]; 96 h, Table 4d): 9.1% | mortality at 50 ppm ([2]; Table 4e): 38.9% | mortality at 250 ppm ([2]; Table 4e): 34.8% | mortality at 50 ppm ([2]; Table 4f): 1.8% | mortality at 250 ppm ([2]; Table 4f): 10.8% | mortality at 50 ppm ([2]; Table 4g): 1.8% | mortality at 250 ppm ([2]; Table 4g): 10.8% | mortality at 50 ppm [3]: 12.5% | mortality at 250 ppm [3]: 17%

O=C(NC1(C(F)F)CC1)c1cccc2nn(-c3cccnc3)cc12 [Cpd 5, N-[1-(difluoromethyl)cyclopropyl]-2-(3-pyridinyl)-2H-indazole-4-carboxamide]
mortality at 0.12 ppm ([1]; 5 h, Table 5h): 40% | mortality at 0.18 ppm ([1]; 5 h, Table 5h): 68.4% | mortality at 0.12 ppm ([1]; 120 h, Table 5d): 34% | mortality at 0.18 ppm ([1]; 120 h, Table 5d): 62.7% | mortality at 0.12 ppm ([1]; Table 5a): 34% | mortality at 0.18 ppm ([1]; Table 5a): 62.7% | mortality at 0.12 ppm ([1]; Table 5b): 34% | mortality at 0.18 ppm ([1]; Table 5b): 62.7% | mortality at 0.12 ppm ([1]; Table 5c): 73.3% | mortality at 0.18 ppm ([1]; Table 5c): 6.7% | mortality at 0.12 ppm ([1]; Table 5e): 32.2% | mortality at 0.18 ppm ([1]; Table 5e): 61.6% | mortality at 0.12 ppm ([1]; Table 5f): 44.9% | mortality at 0.18 ppm ([1]; Table 5f): 58.9% | mortality at 0.12 ppm ([1]; Table 5g): 25.8% | mortality at 0.18 ppm ([1]; Table 5g): 44.3% | mortality at 0.12 ppm ([1]; Table 5i): 41.6% | mortality at 0.18 ppm ([1]; Table 5i): 70.3% | mortality at 0.12 ppm ([1]; Table 5j): 41.6% | mortality at 0.18 ppm ([1]; Table 5j): 70.3% | mortality at 0.12 ppm ([1]; Table 5k): 35.9% | mortality at 0.18 ppm ([1]; Table 5k): 67.2% | mortality at 0.12 ppm ([1]; Table 5l): 35.9% | mortality at 0.18 ppm ([1]; Table 5l): 67.2% | mortality at 0.12 ppm ([1]; Table 5m): 37.3% | mortality at 0.18 ppm ([1]; Table 5m): 61.7% | mortality at 0.12 ppm ([1]; Table 5n): 48.9% | mortality at 0.18 ppm ([1]; Table 5n): 77.7% | mortality at 50 ppm ([2]; 96 h, Table 4d): 5.3% | mortality at 250 ppm ([2]; 96 h, Table 4d): 75% | mortality at 50 ppm ([2]; Table 4e): 21.6% | mortality at 250 ppm ([2]; Table 4e): 13.1% | mortality at 50 ppm ([2]; Table 4f): 15.3% | mortality at 250 ppm ([2]; Table 4f): 22.4% | mortality at 50 ppm ([2]; Table 4g): 15.3% | mortality at 250 ppm ([2]; Table 4g): 22.4% | mortality at 50 ppm [3]: 21% | mortality at 250 ppm [3]: 25%
